{
  "source": "ChEMBL document CHEMBL3885881",
  "about": "“DrugMatrix”",
  "species": "Rattus norvegicus",
  "assay": "DrugMatrix - Regimen: Daily Repeat",
  "format": "toxicity, organism-based, Sprague-Dawley",
  "design": "regimen Daily Repeat, gender Male, age 6-8 weeks",
  "conditions": "in vivo, 0 mg/kg, dose level Control, vehicle 100 % SALINE; for SODIUM / TOTAL BILIRUBIN / TOTAL PROTEIN / URIC ACID / ALANINE AMINOTRANSFERASE / ALBUMIN / ALKALINE PHOSPHATASE / ASPARTATE AMINOTRANSFERASE / BLOOD UREA NITROGEN / CARBON DIOXIDE / CHLORIDE / CHOLESTEROL / CREATINE PHOSPHOKINASE / CREATININE / GLUCOSE / LIPASE / PHOSPHORUS / POTASSIUM: tissue Plasma; for ABSOLUTE BASOPHIL / ABSOLUTE EOSINOPHIL / ABSOLUTE LYMPHOCYTE / ABSOLUTE MONOCYTE / BASOPHIL / EOSINOPHIL / ERYTHROCYTE COUNT / HEMATOCRIT / HEMOGLOBIN / LEUKOCYTE COUNT / LYMPHOCYTE / MEAN CORPUSCULAR HEMOGLOBIN / MEAN CORPUSCULAR HEMOGLOBIN CONCENTRATION / MEAN CORPUSCULAR VOLUME / MONOCYTE / NEUTROPHIL / PLATELET COUNT: tissue Blood",
  "key": {"[1]": {"conditions": "po, 72 h, route oral GAVAGE, time 3 day"}, "[2]": {"conditions": "po, 120 h, route oral GAVAGE, time 5 day"}},
  "data": [
    {"compound": "COc1cccc2c1C(=O)c1c(O)c3c(c(O)c1C2=O)C[C@@](O)(C(C)=O)C[C@@H]3O[C@H]1C[C@H](N)[C@H](O)[C@H](C)O1", "note": "[DAUNORUBICIN]", "values": [
      {"measurement": "SODIUM", "setting": "iv, 120 h, time 5 day", "result": 142.55, "unit": "MEQ/L"},
      {"measurement": "TOTAL BILIRUBIN", "setting": "iv, 120 h, time 5 day", "result": 0.22, "unit": "mg/dL"},
      {"measurement": "TOTAL PROTEIN", "setting": "iv, 120 h, time 5 day", "result": 6.08, "unit": "G/DL"},
      {"measurement": "URIC ACID", "setting": "iv, 120 h, time 5 day", "result": 1.85, "unit": "mg/dL"},
      {"measurement": "ABSOLUTE BASOPHIL", "setting": "[1]", "result": 140, "unit": "cells/µL"},
      {"measurement": "ABSOLUTE EOSINOPHIL", "setting": "[1]", "result": 43.3, "unit": "cells/µL"},
      {"measurement": "ABSOLUTE LYMPHOCYTE", "setting": "[1]", "result": 7570, "unit": "cells/µL"},
      {"measurement": "ABSOLUTE MONOCYTE", "setting": "[1]", "result": 160, "unit": "cells/µL"},
      {"measurement": "BASOPHIL", "setting": "[1]", "result": 1.47, "unit": "%"},
      {"measurement": "EOSINOPHIL", "setting": "[1]", "result": 0.47, "unit": "%"},
      {"measurement": "ERYTHROCYTE COUNT", "setting": "[1]", "result": 6.68, "unit": "x10E6/uL"},
      {"measurement": "HEMATOCRIT", "setting": "[1]", "result": 44.33, "unit": "%"},
      {"measurement": "HEMOGLOBIN", "setting": "[1]", "result": 14.43, "unit": "G/DL"},
      {"measurement": "LEUKOCYTE COUNT", "setting": "[1]", "result": 9.33, "unit": "x10E3/uL"},
      {"measurement": "LYMPHOCYTE", "setting": "[1]", "result": 81.23, "unit": "%"},
      {"measurement": "MEAN CORPUSCULAR HEMOGLOBIN", "setting": "[1]", "result": 21.67, "unit": "pg"},
      {"measurement": "MEAN CORPUSCULAR HEMOGLOBIN CONCENTRATION", "setting": "[1]", "result": 32.6, "unit": "G/DL"},
      {"measurement": "MEAN CORPUSCULAR VOLUME", "setting": "[1]", "result": 66.43, "unit": "fL"},
      {"measurement": "MONOCYTE", "setting": "[1]", "result": 1.73, "unit": "%"},
      {"measurement": "NEUTROPHIL", "setting": "[1]", "result": 14.7, "unit": "%"},
      {"measurement": "PLATELET COUNT", "setting": "[1]", "result": 1341.67, "unit": "x10E3/uL"},
      {"measurement": "ALANINE AMINOTRANSFERASE", "setting": "[1]", "result": 31, "unit": "u/L"},
      {"measurement": "ALBUMIN", "setting": "[1]", "result": 4.03, "unit": "G/DL"},
      {"measurement": "ALKALINE PHOSPHATASE", "setting": "[1]", "result": 447, "unit": "u/L"},
      {"measurement": "ASPARTATE AMINOTRANSFERASE", "setting": "[1]", "result": 61.33, "unit": "u/L"},
      {"measurement": "BLOOD UREA NITROGEN", "setting": "[1]", "result": 15.67, "unit": "mg/dL"},
      {"measurement": "CARBON DIOXIDE", "setting": "[1]", "result": 43, "unit": "mmol/L"},
      {"measurement": "CHLORIDE", "setting": "[1]", "result": 103.33, "unit": "MEQ/L"},
      {"measurement": "CHOLESTEROL", "setting": "[1]", "result": 83.67, "unit": "mg/dL"},
      {"measurement": "CREATINE PHOSPHOKINASE", "setting": "[1]", "result": 174.33, "unit": "u/L"},
      {"measurement": "CREATININE", "setting": "[1]", "result": 0.4, "unit": "mg/dL"},
      {"measurement": "GLUCOSE", "setting": "[1]", "result": 173, "unit": "mg/dL"},
      {"measurement": "LIPASE", "setting": "[1]", "result": 17.33, "unit": "u/L"},
      {"measurement": "PHOSPHORUS", "setting": "[1]", "result": 10.27, "unit": "mg/dL"},
      {"measurement": "POTASSIUM", "setting": "[1]", "result": 6.47, "unit": "MEQ/L"},
      {"measurement": "SODIUM", "setting": "[1]", "result": 143.67, "unit": "MEQ/L"},
      {"measurement": "TOTAL BILIRUBIN", "setting": "[1]", "result": 0.37, "unit": "mg/dL"},
      {"measurement": "TOTAL PROTEIN", "setting": "[1]", "result": 6.63, "unit": "G/DL"},
      {"measurement": "URIC ACID", "setting": "[1]", "result": 1.03, "unit": "mg/dL"},
      {"measurement": "ABSOLUTE BASOPHIL", "setting": "[2]", "result": 53.3, "unit": "cells/µL"},
      {"measurement": "ABSOLUTE EOSINOPHIL", "setting": "[2]", "result": 210, "unit": "cells/µL"},
      {"measurement": "ABSOLUTE LYMPHOCYTE", "setting": "[2]", "result": 8220, "unit": "cells/µL"},
      {"measurement": "ABSOLUTE MONOCYTE", "setting": "[2]", "result": 200, "unit": "cells/µL"},
      {"measurement": "BASOPHIL", "setting": "[2]", "result": 0.53, "unit": "%"},
      {"measurement": "EOSINOPHIL", "setting": "[2]", "result": 2.1, "unit": "%"},
      {"measurement": "ERYTHROCYTE COUNT", "setting": "[2]", "result": 7, "unit": "x10E6/uL"},
      {"measurement": "HEMATOCRIT", "setting": "[2]", "result": 44, "unit": "%"},
      {"measurement": "HEMOGLOBIN", "setting": "[2]", "result": 14.53, "unit": "G/DL"},
      {"measurement": "LEUKOCYTE COUNT", "setting": "[2]", "result": 10.44, "unit": "x10E3/uL"},
      {"measurement": "LYMPHOCYTE", "setting": "[2]", "result": 78.07, "unit": "%"},
      {"measurement": "MEAN CORPUSCULAR HEMOGLOBIN", "setting": "[2]", "result": 20.77, "unit": "pg"},
      {"measurement": "MEAN CORPUSCULAR HEMOGLOBIN CONCENTRATION", "setting": "[2]", "result": 33, "unit": "G/DL"},
      {"measurement": "MEAN CORPUSCULAR VOLUME", "setting": "[2]", "result": 62.87, "unit": "fL"},
      {"measurement": "MONOCYTE", "setting": "[2]", "result": 1.87, "unit": "%"},
      {"measurement": "NEUTROPHIL", "setting": "[2]", "result": 16.8, "unit": "%"},
      {"measurement": "PLATELET COUNT", "setting": "[2]", "result": 1104.33, "unit": "x10E3/uL"},
      {"measurement": "ALANINE AMINOTRANSFERASE", "setting": "[2]", "result": 31.67, "unit": "u/L"},
      {"measurement": "ALBUMIN", "setting": "[2]", "result": 3.93, "unit": "G/DL"},
      {"measurement": "ALKALINE PHOSPHATASE", "setting": "[2]", "result": 394.67, "unit": "u/L"},
      {"measurement": "ASPARTATE AMINOTRANSFERASE", "setting": "[2]", "result": 65.67, "unit": "u/L"},
      {"measurement": "BLOOD UREA NITROGEN", "setting": "[2]", "result": 15.67, "unit": "mg/dL"},
      {"measurement": "CARBON DIOXIDE", "setting": "[2]", "result": 40.67, "unit": "mmol/L"},
      {"measurement": "CHLORIDE", "setting": "[2]", "result": 104.33, "unit": "MEQ/L"},
      {"measurement": "CHOLESTEROL", "setting": "[2]", "result": 66.33, "unit": "mg/dL"},
      {"measurement": "CREATINE PHOSPHOKINASE", "setting": "[2]", "result": 346.67, "unit": "u/L"},
      {"measurement": "CREATININE", "setting": "[2]", "result": 0.33, "unit": "mg/dL"},
      {"measurement": "GLUCOSE", "setting": "[2]", "result": 176.67, "unit": "mg/dL"},
      {"measurement": "LIPASE", "setting": "[2]", "result": 14.33, "unit": "u/L"},
      {"measurement": "PHOSPHORUS", "setting": "[2]", "result": 11.17, "unit": "mg/dL"},
      {"measurement": "POTASSIUM", "setting": "[2]", "result": 6.53, "unit": "MEQ/L"},
      {"measurement": "SODIUM", "setting": "[2]", "result": 146, "unit": "MEQ/L"}
    ]}
  ]
}
